Among the data in US9914737B2, “Triazolopyrimidinone or triazolopyridinone derivatives, and use thereof” (ST PHARM CO., LTD., priority 2014, dated 2018) are IC50 values, retold here.

Where a name gives a salt, the structure may show the parent alone.

For one test, the target named is T1, tankyrase 1 (Homo sapiens, UniProt O95271).
T1 construct: purchased Trevigen 4700-096-K
T1 sequence (O95271 1-1327): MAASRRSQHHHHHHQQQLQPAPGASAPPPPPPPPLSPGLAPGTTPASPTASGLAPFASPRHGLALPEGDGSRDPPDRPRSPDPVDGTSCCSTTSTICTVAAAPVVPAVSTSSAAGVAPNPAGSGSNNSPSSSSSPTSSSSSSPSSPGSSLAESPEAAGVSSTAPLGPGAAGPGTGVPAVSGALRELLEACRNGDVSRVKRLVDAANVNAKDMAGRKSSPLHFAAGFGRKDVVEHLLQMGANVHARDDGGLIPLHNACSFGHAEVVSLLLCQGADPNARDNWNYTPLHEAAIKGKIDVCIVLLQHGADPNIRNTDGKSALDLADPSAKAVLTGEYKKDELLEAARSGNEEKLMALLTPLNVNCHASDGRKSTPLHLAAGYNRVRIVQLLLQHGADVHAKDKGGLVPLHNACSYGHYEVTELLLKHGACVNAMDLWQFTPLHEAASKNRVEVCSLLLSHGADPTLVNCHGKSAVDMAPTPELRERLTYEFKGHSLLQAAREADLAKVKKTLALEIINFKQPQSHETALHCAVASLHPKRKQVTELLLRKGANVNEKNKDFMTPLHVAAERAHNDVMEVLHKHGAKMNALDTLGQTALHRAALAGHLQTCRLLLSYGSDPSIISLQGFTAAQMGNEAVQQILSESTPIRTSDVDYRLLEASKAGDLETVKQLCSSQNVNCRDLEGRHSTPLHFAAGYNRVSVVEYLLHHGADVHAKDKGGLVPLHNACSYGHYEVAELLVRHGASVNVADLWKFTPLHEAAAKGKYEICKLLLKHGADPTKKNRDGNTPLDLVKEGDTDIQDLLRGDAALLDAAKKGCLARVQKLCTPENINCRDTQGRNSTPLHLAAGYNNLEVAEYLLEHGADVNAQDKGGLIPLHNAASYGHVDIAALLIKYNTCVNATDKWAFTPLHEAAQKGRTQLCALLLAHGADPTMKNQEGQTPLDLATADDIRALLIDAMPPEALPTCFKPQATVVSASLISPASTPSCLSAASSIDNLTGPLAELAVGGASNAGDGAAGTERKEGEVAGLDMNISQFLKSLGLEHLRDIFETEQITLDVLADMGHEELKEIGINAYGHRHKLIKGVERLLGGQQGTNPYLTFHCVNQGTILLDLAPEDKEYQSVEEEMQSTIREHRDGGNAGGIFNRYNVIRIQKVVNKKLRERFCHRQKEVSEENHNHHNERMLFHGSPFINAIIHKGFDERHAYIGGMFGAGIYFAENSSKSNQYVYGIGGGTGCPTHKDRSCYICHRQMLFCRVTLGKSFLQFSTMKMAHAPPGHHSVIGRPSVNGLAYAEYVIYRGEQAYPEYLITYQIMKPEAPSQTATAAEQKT
Put plainly: Analysis of activity of tankyrase 1 (Trevigen kit, ELISA absorbance at 450 nm). It is filed as biochemical.
Conditions: not given
The protocol:
Activities of novel compounds synthesized according to Examples 1 to 72 against tankyrase 1 were analyzed using a Trevigen kit (Cat. No. 4700-096-K). Poly PAR histone protein-coated 96-well plate, anti-PAR monoclonal antibody and goat anti-mouse IgG-HRP were used for measurement of absorbance by ELISA method. Specifically, 20× I-PAR assay buffer was diluted to 1× by adding water, and 50 μL of the diluted buffer was added to each well of the 96-well plate followed by reacting at rt for 30 min. Then, the supernatant was completely removed from each well and 10 μL of 1× I-PAR assay buffer and 15 μL of assay substrate were added to each well along with 1 μL of a 50× solution of inhibitors to be tested, which were the compounds obtained in the Examples 1 to 72. 10 mUnits/μL of tankyrase 1 enzyme was diluted 50-fold with 1× I-PAR assay buffer and 25 μL of the diluted enzyme was added to each well and reacted while stirring at rt for 30 min. One without any compound of the present invention was used as a positive control and another containing 1× I-PAR assay buffer with the same volume instead of tankyrase 1 enzyme was used as a negative control. Upon completion of the reaction, 200 μL of PBSX, which was prepared by adding 0.1% triton X-100 to PBS, was added and removed and this washing process was repeated twice. Washing was repeated twice more using PBS in the same manner. 5× antibody diluent was diluted with distilled water to 1× concentration, 50 μL of the diluted goat anti-mouse IgG-HRP to 1/2000 was added to each well and reacted while stirring at rt for 30 min. Washes were carried out twice using PBSX and PBS, respectively. After adding 50 μL of TACS-sapphire to each well of the plate, the plate was blocked from light to react for 10 min to 15 min and the color of the reaction solution turned blue. To stop the reaction, 50 μL of 0.2N HCl was added to turn the solution yellow. Finally, the absorbance of the resulting solution was measured at 450 nm.
For orientation: An ELISA detects its analyte on a solid surface through an enzyme-linked reagent.
In general, IC50 refers to the concentration needed to halve the response being measured. Compound `Cn1nnc2c(=O)[nH]c(N3CCN(c4c(F)cc(OC5COC5)cc4F)CC3)cc21` [compound 62, 6-(4-(2,6-Difluoro-4-(oxetan-3-yloxy)phenyl)piperazin-1-yl)-1-methyl-1H-[1,2,3]triazolo[4,5-c]pyridin-4(5H)-one] yielded a half-inhibitory concentration (IC50) of 22.1 nM.

The test is the same for the next values; noted with them: tankyrase 1 enzyme, Trevigen kit Cat. No. 4700-096-K, 30 min at rt; read-out: TNKS1 (IC50).
As to `CN(C)CCOc1cc(F)c(N2CCN(c3cc4c(nnn4C)c(=O)[nH]3)CC2)c(F)c1` [compound 56, 6-(4-(4-(2-(Dimethylamino)ethoxy)-2,6-difluorophenyl)piperazin-1-yl)-1-methyl-1H-[1,2,3]triazolo[4,5-c]pyridin-4(5H)-one], the half-inhibitory concentration (IC50) is 27.5 nM. Still for that read-out and setting: the same measure for `Cn1nnc2c(=O)[nH]c(N3CCN(c4c(F)cc(OCCO)cc4F)CC3)cc21` [compound 57, 6-(4-(2,6-Difluoro-4-(2-hydroxyethoxy)phenyl)piperazin-1-yl)-1-methyl-1H[1,2,3]triazolo[4,5-c]pyridin-4(5H)-one]: 7.98 nM; for `C[C@H](N)C(=O)OCCOc1cc(F)c(N2CCN(c3cc4c(nnn4C)c(=O)[nH]3)CC2)c(F)c1` [compound 58, (S)-2-(3,5-difluoro-4-(4-(1-methyl-4-oxo-4,5-dihydro-1H-[1,2,3]triazolo[4,5-c]pyridin-6-yl)piperazin-1-yl)phenoxy)ethyl2-aminopropanoate hydrochloride]: 13.4 nM. Same read-out and setting: the same measure for `Cn1nnc2c(=O)[nH]c(N3CCN(c4c(F)cc(OCC(O)CO)cc4F)CC3)cc21` (centres unmarked) [compound 59, 6-(4-(4-(2,3-Dihydroxypropoxy)-2,6-difluorophenyl)piperazin-1-yl)-1-methyl-1H-[1,2,3]triazolo[4,5-c]pyridin-4(5H)-one]: 16 nM. Same read-out and setting: the same measure for `Cn1nnc2c(=O)[nH]c(N3CCN(c4c(F)cc(CN5CCOCC5)cc4F)CC3)cc21` [compound 60, 6-(4-(2,6-Difluoro-4-(morpholinomethyl)phenyl)piperazin-1-yl)-1-methyl-1H-[1,2,3]triazolo[4,5-c]pyridin-4(5H)-one]: 25.8 nM. As for `CN1CCN(Cc2cc(F)c(N3CCN(c4cc5c(nnn5C)c(=O)[nH]4)CC3)c(F)c2)CC1` [compound 61, 6-(4-(2,6-Difluoro-4-((4-methylpiperazin-1-yl)methyl)phenyl)piperazin-1-yl)-1-methyl-1H-[1,2,3]triazolo[4,5-c]pyridin-4(5H)-one], the half-maximal inhibitory concentration (IC50) was found to be 28.2 nM.

For `CC(O)c1cc(F)c(N2CCN(c3cc4c(nnn4C)c(=O)[nH]3)CC2)c(F)c1` (centres unmarked) [compound 63, 6-(4-(2,6-Difluoro-4-(1-hydroxyethyl)phenyl)piperazin-1-yl)-1-methyl-1H[1,2,3]triazolo[4,5-c]pyridin-4(5H)-one], the IC50 amounted to 27.3 nM.

On to `COC(C)c1cc(F)c(N2CCN(c3cc4c(nnn4C)c(=O)[nH]3)CC2)c(F)c1` (centres unmarked) [compound 64, 6-(4-(2,6-Difluoro-4-(1-methoxyethyl)phenyl)piperazin-1-yl)-1-methyl-1H[1,2,3]triazolo[4,5-c]pyridin-4(5H)-one], for which the 50% inhibitory concentration (IC50) stood at 31.2 nM. On to `COCCN(C)Cc1cc(F)c(N2CCN(c3cc4c(nnn4C)c(=O)[nH]3)CC2)c(F)c1` [compound 65, 6-(4-(2,6-Difluoro-4-(((2-methoxyethyl)(methyl)amino)methyl)phenyl)piperazin-1-yl)-1-methyl-1H-[1,2,3]triazolo[4,5-c]pyridin-4(5H)-one], for which the IC50 came out at 40.2 nM. On to `Cn1nnc(C2CCN(c3cc4c(nnn4C)c(=O)[nH]3)CC2)n1` [compound 66, 1-Methyl-6-(4-(2-methyl-2H-tetrazol-5-yl)piperidin-1-yl)-1H-[1,2,3]triazolo[4,5-c]pyridin-4(5H)-one], for which the half-inhibitory concentration (IC50) is 331 nM.

For `Cn1nnc2c(=O)[nH]c(N3CCN(c4c(F)cc(OCCN5CCCC5)cc4F)CC3)cc21` [compound 67, 6-(4-(2,6-Difluoro-4-(2-(pyrrolidin-1-yl)ethoxy)phenyl)piperazin-1-yl)-1-methyl-1H-[1,2,3]triazolo[4,5-c]pyridin-4(5H)-one], the half-inhibitory concentration (IC50) is 18.6 nM. Still for that read-out and setting: the same measure for `CN1CCN(CCOc2cc(F)c(N3CCN(c4cc5c(nnn5C)c(=O)[nH]4)CC3)c(F)c2)CC1` [compound 68, 6-(4-(2,6-Difluoro-4-(2-(4-methylpiperazin-1-yl)ethoxy)phenyl)piperazin-1-yl)-1-methyl-1H-[1,2,3]triazolo[4,5-c]pyridin-4(5H)-one]: 14.2 nM. For the compound `Cn1nnc2c(=O)[nH]c(N3CCN(c4c(F)cc(OCCCN5CCCCC5)cc4F)CC3)cc21` [compound 69, 6-(4-(2,6-Difluoro-4-(3-(piperidin-1-yl)propoxy)phenyl)piperazin-1-yl)-1-methyl-1H-[1,2,3]triazolo[4,5-c]pyridin-4(5H)-one], the half-inhibitory concentration (IC50) came to 19.1 nM. Same read-out and setting: the same measure for `Cn1nnc2c(=O)[nH]c(N3CCN(c4c(F)cc(OCC(=O)N5CCCC5)cc4F)CC3)cc21` [compound 70, 6-(4-(2,6-Difluoro-4-(2-oxo-2-(pyrrolidin-1-yl)ethoxy)phenyl)piperazin-1-yl)-1-methyl-1H-[1,2,3]triazolo[4,5-c]pyridin-4(5H)-one]: 15.6 nM. On the same count and under the same terms, the same measure for `Cn1nnc2c(=O)[nH]c(N3CCN(c4c(F)cc(OCCN)cc4F)CC3)cc21` [compound 71, 6-(4-(4-(2-Aminoethoxy)-2,6-difluorophenyl)piperazin-1-yl)-1-methyl-1H-[1,2,3]triazolo[4,5-c]pyridin-4(5H)-one]: 24.9 nM. Same read-out and setting: the same measure for `Cn1nnc2c(=O)[nH]c(N3CCN(c4c(F)cc(OCCN5CCC(N)CC5)cc4F)CC3)cc21` [compound 72, 6-(4-(4-(2-(4-Aminopiperidin-1-yl)ethoxy)-2,6-difluorophenyl)piperazin-1-yl)-1-methyl-1H-[1,2,3]triazolo[4,5-c]pyridin-4(5H)-one]: 7.31 nM.
